Values quoted from earlier work in patent US6562363B1, “Bioadhesive compositions and methods for topical administration of active agents” (Noven Pharmaceuticals, Inc., priority 1997, dated 2003).

How the values were obtained:
[1] = application to skin or mucous membranes
[2] = application to skin or mucous membranes; for Duration of Effect: duration of anesthetic effect; for Peak Effect: time to peak anesthetic effect

Compound	Maximum Adult Dose [1] [mg]	Duration of Effect [2] [min]	Peak Effect [2] [min]
CCOC(=O)c1ccc(N)cc1 [Benzocaine]	5000	30 to 60	1
COC(=O)[C@H]1[C@@H](OC(=O)c2ccccc2)C[C@@H]2CC[C@H]1N2C [Cocaine]	50		
CCCCOc1cc(C(=O)NCCN(CC)CC)c2ccccc2n1 [Dibucaine]	25	120 to 240	<15
CCCCOc1ccc(C(=O)CCN2CCCCC2)cc1 [Dyclonine]	100	<60	<10
CCN(CC)CC(=O)Nc1c(C)cccc1C [Lidocaine]	750		
CCCCNc1ccc(C(=O)OCCN(C)C)cc1 [Tetracaine]	50	30 to 60	3 to 8
